Patent US7414048B2, “4,5-dihydro-isoxazole derivatives and their pharmaceutical use” (Janssen Pharmaceutica, N.V., priority 1998, dated 2008)

Tested on: T cell blast formation in human blood
Assay: In vitro inhibition of T cell blast formation in human blood (human whole blood blast formation, PHA stimulated, flow cytometry)
Format: cell-based
Details: 72 hours, mean where multiple measurements
Experimental: Cells are collected after a 72 hours culture period at 37° C., supernatant is removed by centrifugation and red blood cells are lysed by a hypotonic buffer. The remaining white blood cells are collected in PBS containing propidium iodide. The blast formation is analyzed using a benchtop flow cytometer (Cytoron, Ortho) equipped with an argon-ion laser. […] When multiple measurements were performed, a mean value was calculated for the percentage inhibition of T cell blast formation.

[1] = Test Dose 1 × 10^−6 (unit not given)
[2] = Test Dose 3 × 10^−7 (unit not given)
[3] = Test Dose 1 × 10^−7 (unit not given)

SMILES	% Inhibition of T cell blast formation [1] [%]	other results
C#CC(O)(c1ccccc1)c1ccc(NC(=O)C2CC(c3cccnc3)=NO2)cc1 (racemic) [Compound 69, [B(R)]±[B(S)]-4,5-dihydro-N-[4-(1-hydroxy-1-phenyl-2-propynyl)phenyl]-3-(3-pyridinyl)-5-isoxazolecarboxamide]	73	–
N#CC(OC(N)=O)(c1ccccc1)c1ccc(NC(=O)C2CC(c3cccnc3)=NO2)cc1 (racemic) [Compound 75, (±)-[cyano[4-[[[4,5-dihydro-3-(3-pyridinyl)-5-isoxazolyl]carbonyl]amino]phenyl]phenylmethyl]carbamate]	–	% Inhibition of T cell blast formation [2]: 67%
O=C(/C=C/c1c(F)cccc1F)c1ccc(NC(=O)C2CC(c3cccnc3)=NO2)cc1 (racemic) [Compound 468]	–	% Inhibition of T cell blast formation [2]: 61%
O=C(/C=C/c1ccc2c(c1)OCO2)c1ccc(NC(=O)C2CC(c3cccnc3)=NO2)cc1 (racemic) [Compound 469]	–	% Inhibition of T cell blast formation [2]: 65%
C=CCOc1ccccc1/C=C/C(=O)c1ccc(NC(=O)C2CC(c3cccnc3)=NO2)cc1 (racemic) [Compound 470]	87	–
O=C(/C=C/c1ccccc1C(F)(F)F)c1ccc(NC(=O)C2CC(c3cccnc3)=NO2)cc1 (racemic) [Compound 471]	–	% Inhibition of T cell blast formation [2]: 54%
O=C(/C=C/c1ccccc1F)c1ccc(NC(=O)C2CC(c3cccnc3)=NO2)cc1 (racemic) [Compound 473]	–	% Inhibition of T cell blast formation [2]: 72%
Cc1ccccc1/C=C/C(=O)c1ccc(NC(=O)C2CC(c3cccnc3)=NO2)cc1 (racemic) [Compound 475]	–	% Inhibition of T cell blast formation [2]: 56%
O=C(/C=C/c1c(F)cccc1Cl)c1ccc(NC(=O)C2CC(c3cccnc3)=NO2)cc1 (racemic) [Compound 476]	–	% Inhibition of T cell blast formation [2]: 67%
COc1ccccc1/C=C/C(=O)c1ccc(NC(=O)C2CC(c3cccnc3)=NO2)cc1 (racemic) [Compound 477]	–	% Inhibition of T cell blast formation [2]: 63%
O=C(/C=C/c1ccccc1)c1ccc(NC(=O)C2CC(c3cccnc3)=NO2)cc1 (racemic) [Compound 478]	–	% Inhibition of T cell blast formation [2]: 70%
COc1ccc(/C=C/C(=O)c2ccc(NC(=O)C3CC(c4cccnc4)=NO3)cc2)c(C)c1C (racemic) [Compound 479]	85	–
O=C(Nc1ccc(C(O)(c2ccccc2)c2ccccn2)cc1)C1CC(c2cccnc2)=NO1 (single isomer, unassigned) [Compound 68]	61	–
O=C(c1ccc(NC(=O)C2CC(c3cccnc3)=NO2)cc1)c1ccccn1 (single isomer, unassigned) [Compound 394]	84	–
O=C(Nc1ccc(C(=NO)c2ccccc2)cc1)C1CC(c2cccnc2)=NO1 (single isomer, unassigned) [Compound 419]	–	% Inhibition of T cell blast formation [3]: 86%
O=C(Nc1ccc(C(=NO)c2ccccc2)cc1)C1CC(c2cccnc2)=NO1 (single isomer, unassigned) [Compound 420]	39	–
O=C(c1ccc(NC(=O)C2CC(c3cccnc3)=NO2)cc1)c1ccccn1 (single isomer, unassigned) [Compound 489]	–	% Inhibition of T cell blast formation [3]: 80%
O=C(Nc1ccc(C(O)c2ccccn2)cc1)C1CC(c2cccnc2)=NO1 (single isomer, unassigned) [Compound 525]	74	–
COc1cccc(C(=O)c2ccc(NC(=O)C3CC(c4cccnc4)=NO3)cc2)c1 (stereo not drawn) [Compound 9]	71	–
Cc1cccc(C(=O)c2ccc(NC(=O)C3CC(c4cccnc4)=NO3)cc2)c1 (stereo not drawn) [Compound 10]	75	–

SMILES	% Inhibition of T cell blast formation [1] [%]	other results
O=C(c1ccc(NC(=O)C2CC(c3cccnc3)=NO2)cc1)c1cccc(F)c1 (stereo not drawn) [Compound 12]	83	–
O=C(c1ccc(F)cc1)c1ccc(NC(=O)C2CC(c3cccnc3)=NO2)cc1 (stereo not drawn) [Compound 13]	78	–
O=C(c1ccc(NC(=O)C2CC(c3cccnc3)=NO2)cc1)c1ccccc1Cl (stereo not drawn) [Compound 14]	78	–
Nc1ccc(C(=O)c2ccc(NC(=O)C3CC(c4cccnc4)=NO3)cc2)cc1 (stereo not drawn) [Compound 17]	–	% Inhibition of T cell blast formation [2]: 53%
O=C(Nc1ccc(Oc2ccccc2)cc1)C1CC(c2cccnc2)=NO1 (stereo not drawn) [Compound 36]	–	% Inhibition of T cell blast formation (Test Dose 1 × 10^−5 (unit not given)): 85%
CC(C#N)(c1ccc(F)cc1)c1ccc(NC(=O)C2CC(c3cccnc3)=NO2)cc1F (stereo not drawn) [Compound 39]	67	–
CC(C#N)(c1ccccc1)c1ccc(NC(=O)C2CC(c3cccnc3)=NO2)cc1 (stereo not drawn) [Compound 45]	78	–
COC(c1ccccc1)c1ccc(NC(=O)C2CC(c3cccnc3)=NO2)cc1.Cl (stereo not drawn) [Compound 52]	89	–
Nc1nc(-c2ccccc2)c(C(c2ccccc2)c2ccc(NC(=O)C3CC(c4cccnc4)=NO3)cc2)s1 (stereo not drawn) [Compound 53]	39	–
O=C(Nc1ccc(C(O)(Cc2cccnc2)c2ccccc2)cc1)C1CC(c2cccnc2)=NO1 (stereo not drawn) [Compound 73]	–	% Inhibition of T cell blast formation [2]: 67%
O=C(Nc1ccc(C(NC2CC2)c2ccccc2)cc1)C1CC(c2cccnc2)=NO1 (stereo not drawn) [Compound 90]	33	–
Cn1ncc2ccc(CNC(c3ccccc3)c3ccc(NC(=O)C4CC(c5cccnc5)=NO4)cc3)cc21 (stereo not drawn) [Compound 94]	44	–
O=C(Nc1ccc(C(Nc2ccc3[nH]nnc3c2)c2ccccc2)cc1)C1CC(c2cccnc2)=NO1 (stereo not drawn) [Compound 96]	39	–
O=C(Nc1ccc(C(NCc2ccncc2)c2ccccc2)cc1)C1CC(c2cccnc2)=NO1 (stereo not drawn) [Compound 97]	58	–
O=C(Nc1ccc(C(Nc2ccccn2)c2ccccc2)cc1)C1CC(c2cccnc2)=NO1 (stereo not drawn) [Compound 99]	83	–
CC(C)NC(c1ccccc1)c1ccc(NC(=O)C2CC(c3cccnc3)=NO2)cc1 (stereo not drawn) [Compound 100]	35	–
Cn1cnc2cc(NC(c3ccccc3)c3ccc(NC(=O)C4CC(c5cccnc5)=NO4)cc3)ccc21 (stereo not drawn) [Compound 101]	70	–
CN1CCC(NC(c2ccccc2)c2ccc(NC(=O)C3CC(c4cccnc4)=NO3)cc2)CC1 (stereo not drawn) [Compound 102]	66	–
CN1CCC(CNC(c2ccccc2)c2ccc(NC(=O)C3CC(c4cccnc4)=NO3)cc2)CC1 (stereo not drawn) [Compound 103]	82	–
O=C(Nc1ccc(C(NC2CCN(Cc3ccccc3)CC2)c2ccccc2)cc1)C1CC(c2cccnc2)=NO1 (stereo not drawn) [Compound 104]	60	–

SMILES	% Inhibition of T cell blast formation [1] [%]	other results
O=C(Nc1ccc(C(Nc2ccccc2)c2ccccc2)cc1)C1CC(c2cccnc2)=NO1 (stereo not drawn) [Compound 113]	–	% Inhibition of T cell blast formation [2]: 37%
COc1cc(S(N)(=O)=O)ccc1NC(c1ccccc1)c1ccc(NC(=O)C2CC(c3cccnc3)=NO2)cc1 (stereo not drawn) [Compound 119]	54	–
CN(CCC1OCCO1)C(c1ccccc1)c1ccc(NC(=O)C2CC(c3cccnc3)=NO2)cc1 (stereo not drawn) [Compound 122]	–	% Inhibition of T cell blast formation [2]: 36%
CCOC(=O)NC(c1ccccc1)c1ccc(NC(=O)C2CC(c3cccnc3)=NO2)cc1 (stereo not drawn) [Compound 131]	95	–
CN1CCC(N(C)CC(=O)NC(c2ccccc2)c2ccc(NC(=O)C3CC(c4cccnc4)=NO3)cc2)CC1 (stereo not drawn) [Compound 146]	95	–
CCCC(=O)NC(c1ccccc1)c1ccc(NC(=O)C2CC(c3cccnc3)=NO2)cc1 (stereo not drawn) [Compound 156]	56	–
O=C(NC(c1ccccc1)c1ccc(NC(=O)C2CC(c3cccnc3)=NO2)cc1)c1c(F)cccc1F (stereo not drawn) [Compound 158]	–	% Inhibition of T cell blast formation [2]: 64%
Cc1cc(NC(c2ccccc2)c2ccc(NC(=O)C3CC(c4cccnc4)=NO3)cc2)no1 (stereo not drawn) [Compound 162]	–	% Inhibition of T cell blast formation [2]: 46%
CN(CC(N)=O)C(c1ccccc1)c1ccc(NC(=O)C2CC(c3cccnc3)=NO2)cc1 (stereo not drawn) [Compound 163]	–	% Inhibition of T cell blast formation [2]: 56%
O=C(Cc1ccccc1)NC(c1ccccc1)c1ccc(NC(=O)C2CC(c3cccnc3)=NO2)cc1 (stereo not drawn) [Compound 166]	66	–
CCOc1ccc(C)c(NC(c2ccccc2)c2ccc(NC(=O)C3CC(c4cccnc4)=NO3)cc2)c1 (stereo not drawn) [Compound 172]	35	–
CC(=O)Nc1ccccc1NC(c1ccccc1)c1ccc(NC(=O)C2CC(c3cccnc3)=NO2)cc1 (stereo not drawn) [Compound 174]	42	–
Cc1cccc(NC(c2ccccc2)c2ccc(NC(=O)C3CC(c4cccnc4)=NO3)cc2)c1C (stereo not drawn) [Compound 175]	42	–
NC(=O)c1ccccc1NC(c1ccccc1)c1ccc(NC(=O)C2CC(c3cccnc3)=NO2)cc1 (stereo not drawn) [Compound 192]	72	–
O=C(Nc1ccc(C(Nc2ccccc2O)c2ccccc2)cc1)C1CC(c2cccnc2)=NO1 (stereo not drawn) [Compound 203]	62	–
NC(c1ccccc1)c1ccc(NC(=O)[C@@H]2CC(c3cccnc3)=NO2)cc1 (stereo partly drawn) [Compound 205, [5S-(A)]-N-[4-(aminophenylmethyl)phenyl]4,5-dihydro-3-(3-pyridinyl)-5-isoxazolecarboxamide]	73	–
NC(c1ccccc1)c1ccc(NC(=O)[C@@H]2CC(c3cccnc3)=NO2)cc1 (stereo partly drawn) [Compound 206, [5S-(B)]-N-[4-(aminophenylmethyl)phenyl]4,5-dihydro-3-(3-pyridinyl)-5-isoxazolecarboxamide]	66	–
O=C(Nc1ccc(C(Nc2cccc(F)c2)c2ccccc2)cc1)C1CC(c2cccnc2)=NO1 (stereo not drawn) [Compound 214]	62	–
O=C(Nc1ccc(C(Nc2cccc(Cl)c2)c2ccccc2)cc1)C1CC(c2cccnc2)=NO1 (stereo not drawn) [Compound 216]	70	–
O=C(Nc1ccc(C(Nc2ccc(C(F)(F)F)cc2Br)c2ccccc2)cc1)C1CC(c2cccnc2)=NO1 (stereo not drawn) [Compound 218]	–	% Inhibition of T cell blast formation [2]: 33%
